This is an account of results in patent US8344001B2, “Heterocyclic H3 antagonists” (High Point Pharmaceuticals, LLC, priority 2007, dated 2013).

One series addresses hERG (Homo sapiens, UniProt Q12809). Nature of the series: Herg-binding (3H-Astemizol). To be noted: probe 3H-astemizole.
The next series has as its target CYP2C19 (Homo sapiens, UniProt P33261). Nature of the series: CYP2C19 inhibition. Format: in vitro ADME. To be noted: read-out: CYP2C19inh [IC50].
In another series the target is Human H3 (Homo sapiens, UniProt Q9Y5N1). Nature of the series: Functional assay II, human H3 GTPγS. Format: biochemical. To be noted: read-out: hH3-GTPgS) [Ki].
Chain of Human H3 (Q9Y5N1 whole entry): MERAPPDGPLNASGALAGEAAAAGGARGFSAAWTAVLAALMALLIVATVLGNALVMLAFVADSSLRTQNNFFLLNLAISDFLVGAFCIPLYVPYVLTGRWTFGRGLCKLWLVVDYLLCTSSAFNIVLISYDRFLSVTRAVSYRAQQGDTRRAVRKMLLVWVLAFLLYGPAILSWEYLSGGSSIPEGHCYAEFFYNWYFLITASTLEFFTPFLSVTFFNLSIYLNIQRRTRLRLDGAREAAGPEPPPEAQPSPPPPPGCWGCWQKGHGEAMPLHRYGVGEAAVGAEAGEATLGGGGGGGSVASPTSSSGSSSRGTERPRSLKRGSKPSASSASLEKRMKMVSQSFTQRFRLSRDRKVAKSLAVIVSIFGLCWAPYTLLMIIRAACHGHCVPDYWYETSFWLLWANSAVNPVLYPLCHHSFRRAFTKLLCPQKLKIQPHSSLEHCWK
Another series deals with CYP3A4 (Homo sapiens, UniProt P08684). Nature of the series: CYP3A4 inhibition. To be noted: read-out: CYP3A4inh [IC50]. Format: in vitro ADME.
Chain of CYP3A4 (P08684 whole entry): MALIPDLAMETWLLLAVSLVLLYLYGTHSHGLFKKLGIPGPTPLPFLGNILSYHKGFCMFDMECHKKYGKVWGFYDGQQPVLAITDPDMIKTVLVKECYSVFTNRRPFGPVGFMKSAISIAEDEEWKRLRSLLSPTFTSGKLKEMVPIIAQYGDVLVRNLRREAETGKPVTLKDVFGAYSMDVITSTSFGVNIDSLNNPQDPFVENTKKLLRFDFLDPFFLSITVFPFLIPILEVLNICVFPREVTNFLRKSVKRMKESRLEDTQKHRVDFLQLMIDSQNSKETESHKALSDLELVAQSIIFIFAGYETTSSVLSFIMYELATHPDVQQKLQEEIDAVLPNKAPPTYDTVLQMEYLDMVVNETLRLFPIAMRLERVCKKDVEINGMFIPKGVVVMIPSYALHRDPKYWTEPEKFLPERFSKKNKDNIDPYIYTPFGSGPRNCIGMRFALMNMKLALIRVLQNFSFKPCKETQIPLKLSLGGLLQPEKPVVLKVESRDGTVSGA
The subject of the next series is rat. Nature of the series: Open cage schedule-fed rat model, food intake. It counts as in vivo. To be noted: for Feed. Inhib. rat [Response 3 h]: response at 3 h.
In the next series the target is T1, CYP1A (Homo sapiens, UniProt P05177).
T1 sequence (P05177 2-516): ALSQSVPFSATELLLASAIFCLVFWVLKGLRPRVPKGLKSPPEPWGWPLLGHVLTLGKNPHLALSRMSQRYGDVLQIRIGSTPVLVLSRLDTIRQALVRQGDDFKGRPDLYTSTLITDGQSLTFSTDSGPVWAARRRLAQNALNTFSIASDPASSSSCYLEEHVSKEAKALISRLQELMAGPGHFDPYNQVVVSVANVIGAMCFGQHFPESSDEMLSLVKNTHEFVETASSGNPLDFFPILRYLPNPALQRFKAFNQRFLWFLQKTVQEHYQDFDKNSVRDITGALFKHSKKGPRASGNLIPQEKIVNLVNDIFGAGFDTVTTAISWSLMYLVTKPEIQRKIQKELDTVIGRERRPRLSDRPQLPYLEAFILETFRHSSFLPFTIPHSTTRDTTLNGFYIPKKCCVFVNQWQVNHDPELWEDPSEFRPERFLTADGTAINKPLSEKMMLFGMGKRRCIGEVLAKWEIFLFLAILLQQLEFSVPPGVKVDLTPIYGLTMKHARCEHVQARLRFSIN
Nature of the series: CYP1A inhibition.

In another series the target is CYP2D6 (Homo sapiens, UniProt P10635). Nature of the series: CYP2D6 inhibition. It counts as in vitro ADME. The settings on record: read-out: CYP2D6inh [IC50].
Chain of CYP2D6 (P10635 whole entry): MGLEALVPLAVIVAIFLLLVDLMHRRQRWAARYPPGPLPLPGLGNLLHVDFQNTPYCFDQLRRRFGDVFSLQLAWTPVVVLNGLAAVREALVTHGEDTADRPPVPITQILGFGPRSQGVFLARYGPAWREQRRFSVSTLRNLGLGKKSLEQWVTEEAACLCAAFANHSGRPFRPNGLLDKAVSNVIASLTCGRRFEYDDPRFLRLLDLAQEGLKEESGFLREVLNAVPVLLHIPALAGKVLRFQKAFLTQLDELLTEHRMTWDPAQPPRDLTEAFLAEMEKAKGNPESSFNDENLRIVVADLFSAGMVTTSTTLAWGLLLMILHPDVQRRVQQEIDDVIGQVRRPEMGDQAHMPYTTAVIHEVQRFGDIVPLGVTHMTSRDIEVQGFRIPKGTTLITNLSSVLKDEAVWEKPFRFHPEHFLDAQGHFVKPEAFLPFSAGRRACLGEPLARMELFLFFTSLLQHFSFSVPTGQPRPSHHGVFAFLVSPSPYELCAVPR
For another series, the target named is CYP2C9 (Homo sapiens, UniProt P11712). Nature of the series: CYP2C9 inhibition. It counts as in vitro ADME. The settings on record: read-out: CYP2C9inh [IC50].
Chain of CYP2C9 (P11712 whole entry): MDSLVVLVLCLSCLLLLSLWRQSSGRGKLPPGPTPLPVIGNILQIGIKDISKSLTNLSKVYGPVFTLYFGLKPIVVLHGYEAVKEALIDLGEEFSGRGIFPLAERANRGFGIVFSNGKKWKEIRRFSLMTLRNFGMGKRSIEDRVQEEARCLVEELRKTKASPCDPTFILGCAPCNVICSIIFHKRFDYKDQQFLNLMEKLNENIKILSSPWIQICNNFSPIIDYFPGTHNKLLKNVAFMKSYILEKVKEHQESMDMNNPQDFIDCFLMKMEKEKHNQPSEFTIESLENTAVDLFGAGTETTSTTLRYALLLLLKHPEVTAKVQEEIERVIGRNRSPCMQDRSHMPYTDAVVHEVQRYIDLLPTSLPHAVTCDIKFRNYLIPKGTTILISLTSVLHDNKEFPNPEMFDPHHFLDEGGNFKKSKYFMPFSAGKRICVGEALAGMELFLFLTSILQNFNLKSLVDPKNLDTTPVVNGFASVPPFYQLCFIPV

Chain of CYP2C19 (P33261 whole entry): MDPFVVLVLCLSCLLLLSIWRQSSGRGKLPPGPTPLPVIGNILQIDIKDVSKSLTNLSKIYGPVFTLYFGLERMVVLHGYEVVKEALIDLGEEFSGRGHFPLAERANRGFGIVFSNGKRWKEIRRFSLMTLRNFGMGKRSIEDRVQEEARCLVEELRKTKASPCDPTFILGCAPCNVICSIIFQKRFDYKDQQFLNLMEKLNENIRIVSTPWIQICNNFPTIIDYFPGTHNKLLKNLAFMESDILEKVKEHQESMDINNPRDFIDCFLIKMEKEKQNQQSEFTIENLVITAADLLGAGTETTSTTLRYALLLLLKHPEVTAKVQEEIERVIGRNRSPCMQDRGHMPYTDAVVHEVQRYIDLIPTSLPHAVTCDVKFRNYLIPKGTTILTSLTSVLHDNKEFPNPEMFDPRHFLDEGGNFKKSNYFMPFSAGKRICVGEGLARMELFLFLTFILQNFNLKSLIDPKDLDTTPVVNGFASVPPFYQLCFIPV
Chain of hERG (Q12809 whole entry): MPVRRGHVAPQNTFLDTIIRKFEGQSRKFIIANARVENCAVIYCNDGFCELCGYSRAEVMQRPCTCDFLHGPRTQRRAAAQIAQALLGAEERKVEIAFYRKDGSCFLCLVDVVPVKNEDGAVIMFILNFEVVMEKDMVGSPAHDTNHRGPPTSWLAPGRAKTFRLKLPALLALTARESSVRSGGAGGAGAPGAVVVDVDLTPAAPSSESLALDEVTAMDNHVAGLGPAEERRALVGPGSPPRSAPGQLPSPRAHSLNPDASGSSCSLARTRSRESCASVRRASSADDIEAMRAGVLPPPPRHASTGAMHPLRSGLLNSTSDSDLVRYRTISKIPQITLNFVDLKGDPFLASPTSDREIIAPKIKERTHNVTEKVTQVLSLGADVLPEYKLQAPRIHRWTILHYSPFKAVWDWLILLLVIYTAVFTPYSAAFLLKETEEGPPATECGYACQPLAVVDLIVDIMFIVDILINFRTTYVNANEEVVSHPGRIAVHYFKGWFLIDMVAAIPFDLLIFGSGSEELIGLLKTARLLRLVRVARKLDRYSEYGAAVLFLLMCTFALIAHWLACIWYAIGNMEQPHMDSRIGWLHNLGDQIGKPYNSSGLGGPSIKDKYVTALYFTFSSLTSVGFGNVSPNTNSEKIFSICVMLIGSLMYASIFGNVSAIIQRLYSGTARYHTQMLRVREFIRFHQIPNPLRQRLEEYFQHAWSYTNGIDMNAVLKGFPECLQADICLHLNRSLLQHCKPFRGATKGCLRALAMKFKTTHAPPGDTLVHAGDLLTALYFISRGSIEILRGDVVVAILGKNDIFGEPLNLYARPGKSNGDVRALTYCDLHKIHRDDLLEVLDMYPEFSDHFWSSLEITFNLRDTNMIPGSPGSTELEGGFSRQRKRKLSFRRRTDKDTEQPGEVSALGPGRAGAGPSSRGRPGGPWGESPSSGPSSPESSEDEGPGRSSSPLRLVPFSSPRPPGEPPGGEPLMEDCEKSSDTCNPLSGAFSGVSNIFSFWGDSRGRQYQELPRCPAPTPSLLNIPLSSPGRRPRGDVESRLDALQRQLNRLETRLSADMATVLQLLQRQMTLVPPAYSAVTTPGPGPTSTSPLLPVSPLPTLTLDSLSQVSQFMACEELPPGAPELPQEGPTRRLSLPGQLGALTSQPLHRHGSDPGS

Broadly, the inhibition is the share of the control response that was lost under treatment. A lower inhibition goes with a response near the control. For orientation: IC50 means the midpoint of a concentration-inhibition curve. Usually Ki stands for a measure of affinity in units of concentration, obtained from inhibition or displacement. The compound `CC(C)N1CCC(c2ccc(-c3ccc(C(=O)N4CCCC4)cc3)cn2)CC1.Cl.Cl` [Example 11, [4-(1′-Isopropyl-1′,2′,3′,4′,5′,6′-hexahydro-[2,4′]bipyridinyl-5-yl)phenyl]pyrrolidin-1-ylmethanone] yielded an inhibition at 10 µM on hERG of 19%. Further, the IC50 at CYP2C19, on CYP3A4, at CYP1A, on CYP2D6 and at CYP2C9 was above 25 µM in each case. Besides, the Ki on Human H3 was found to be 0.026 µM. In the series on rat, the “Open cage schedule-fed rat model, dose 15 mg/kg p.o., food intake at 3 h” value is on record as 85.9 % of vehicle. Besides, the “Feed. Inhib. rat [Response 3 h]” value in the series with rat is 85.9%.

As for `Cc1cc(-c2ccc(CC3CCN(C4CCC4)CC3)nc2)ccn1.Cl.Cl` [Example 29, 6-(1-Cyclobutylpiperidin-4-ylmethyl)-2′-methyl-[3,4′]bipyridinyl], on hERG, the inhibition at 10 µM came out at 7%. Moreover, the half-maximal inhibitory concentration (IC50) on CYP2C19, on CYP3A4, on CYP1A, at CYP2D6 and on CYP2C9 was above 25 µM each time. The inhibition constant Ki on Human H3 amounted to 0.0084 µM. The “Open cage schedule-fed rat model, dose 15 mg/kg p.o., food intake at 3 h” value in the series on rat was 74.4 % of vehicle. Further, in the series on rat, the “Feed. Inhib. rat [Response 3 h]” value is on record as 74.4%.

The compound `CC(C)N1CCN(Cc2ccc(-c3ccc(C(=O)N(C)C)cc3)cn2)CC1.Cl.Cl` [Example 42, 4-[6-(4-Isopropylpiperazin-1-ylmethyl)pyridin-3-yl]-N,N-dimethylbenzamide] yielded an inhibition at 10 µM on hERG of 7%. The IC50 at CYP2C19, on CYP3A4, on CYP1A, at CYP2D6 and on CYP2C9 was above 25 µM throughout. The Ki at Human H3 is 0.017 µM. Moreover, the “Open cage schedule-fed rat model, dose 15 mg/kg p.o., food intake at 3 h” value in the series on rat is 87.8 % of vehicle. The “Feed. Inhib. rat [Response 3 h]” value in the series on rat amounted to 87.8%.
